Calls of active or inactive are those of the source.
Experiments:
[1] = test system: P388/ADR; assay: cells; type: functional; settings: Mus musculus
[2] = test system: SN12K1; assay: cells; type: functional; settings: Homo sapiens
[3] = test system: P388; assay: cells; type: functional; settings: Mus musculus
[4] = target: T1, Leucine aminopeptidase (Plasmodium falciparum 3D7, UniProt Q8IL11); assay: P. falciparum M17LAP inhibitors, primary screen, biochemical, fluorogenic H-Leu-NHMec substrate, 1536-well (AID 1619); type: functional
T1 sequence (Q8IL11 whole entry): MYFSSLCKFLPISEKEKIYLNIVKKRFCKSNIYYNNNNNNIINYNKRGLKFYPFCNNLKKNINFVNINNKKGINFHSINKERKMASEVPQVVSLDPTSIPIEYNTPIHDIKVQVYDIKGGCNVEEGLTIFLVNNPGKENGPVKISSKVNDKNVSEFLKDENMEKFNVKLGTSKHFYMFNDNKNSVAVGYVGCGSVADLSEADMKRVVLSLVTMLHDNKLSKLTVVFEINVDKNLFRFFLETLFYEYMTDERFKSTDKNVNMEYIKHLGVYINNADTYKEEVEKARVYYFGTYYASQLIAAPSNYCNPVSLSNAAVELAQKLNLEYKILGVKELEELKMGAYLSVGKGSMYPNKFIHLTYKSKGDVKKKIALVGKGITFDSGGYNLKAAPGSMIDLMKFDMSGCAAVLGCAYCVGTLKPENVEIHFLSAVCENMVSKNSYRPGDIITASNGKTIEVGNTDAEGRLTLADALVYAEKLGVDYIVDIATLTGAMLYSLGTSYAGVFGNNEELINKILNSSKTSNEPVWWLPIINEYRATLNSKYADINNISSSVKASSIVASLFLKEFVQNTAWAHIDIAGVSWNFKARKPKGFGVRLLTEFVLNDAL

[5] = target: T2, Polyadenylate-binding protein 1 (Homo sapiens, UniProt P11940); assay: PABP1 MLLE–PAM2 interaction inhibitors, dose response, miRNA deadenylation inhibitor project, biochemical, fluorescence polarization, Cy5-PAM2 peptide, secondary (AID 602260); type: functional; settings: read-out: IC50_Mean
[6] = target: T2, Polyadenylate-binding protein 1; assay: PABP1 MLLE–PAM2 binding inhibitor potency, dose response, biochemical, fluorescence polarization, FITC-PAM2 peptide (AID 602259); type: functional; settings: read-out: IC50_Mean
[7] = target: Large T antigen (Simian virus 40, UniProt P03070); type: functional, Betapolyomavirus macacae;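 further: Confirmatory-stage PubChem screen for compounds that inhibit SV40 T antigen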
[8] = target: T3, Rac GTPase-activating protein 1 (Homo sapiens, UniProt Q9H0H5); assay: MgcRacGAP GTPase-activating activity inhibitors, confirmation, biochemical, ADP Hunter fluorescence, primary and confirmatory (AID 624330); type: functional
T3 sequence (Q9H0H5 whole entry): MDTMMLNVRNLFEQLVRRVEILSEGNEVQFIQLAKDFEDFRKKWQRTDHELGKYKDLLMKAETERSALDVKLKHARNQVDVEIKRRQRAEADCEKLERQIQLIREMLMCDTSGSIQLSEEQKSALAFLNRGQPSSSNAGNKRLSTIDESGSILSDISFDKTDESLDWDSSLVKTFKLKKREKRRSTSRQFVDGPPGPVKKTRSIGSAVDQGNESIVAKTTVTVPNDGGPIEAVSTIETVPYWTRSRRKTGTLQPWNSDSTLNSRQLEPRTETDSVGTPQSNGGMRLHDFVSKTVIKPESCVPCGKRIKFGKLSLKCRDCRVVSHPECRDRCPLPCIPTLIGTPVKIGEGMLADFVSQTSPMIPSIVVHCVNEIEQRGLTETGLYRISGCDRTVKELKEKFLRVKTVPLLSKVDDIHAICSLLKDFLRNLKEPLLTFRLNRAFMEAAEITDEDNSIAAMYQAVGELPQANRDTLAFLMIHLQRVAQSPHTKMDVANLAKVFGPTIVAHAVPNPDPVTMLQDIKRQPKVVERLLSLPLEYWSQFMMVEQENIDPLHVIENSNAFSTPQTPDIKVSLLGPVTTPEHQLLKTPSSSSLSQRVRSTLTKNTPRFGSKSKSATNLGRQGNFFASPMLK

[9] = test system: INS1; assay: beta cell apoptosis inhibitors, cytokine rescue, dose response, luminescence, retest (AID 449756); type: functional, cell-based; settings: Rattus norvegicus;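 further: cell death triggered by IL-1 beta plus TNF-alpha plus IFN-gamma mixture; protective hits raise ATP signal compared with cytokine alone wells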
[10] = inhibitors of clade B AD8 Env fusion, dose response, cell-based, cherry-pick (AID 652062); type: functional;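 further: luciferase signal from cell-cell fusion driven by HIV-1 clade B AD8 Env; potency is for inhibitors of fusion seen as a drop in luminescence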
[11] = target: Luciferin 4-monooxygenase (Photinus pyralis, UniProt P08659); assay: firefly luciferase enzyme inhibitors, dose response, biochemical, luminescence (AID 1891)
[12] = Luminescence Cell-Based Dose Confirmation HTS to Identify Inhibitors of Platelet Dense Granule Release. [Related pubchem assays: 1663 (Primary HTS), 1678 (Summary of Project)]; type: functional
[13] = target: Cytochrome P450 2C9 (Homo sapiens, UniProt P11712)
[14] = growth suppression of PTEN-null colon cells, dose response, cell-based, HCT116 PTEN knockout (AID 1047); type: functional;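 further: HCT116 colon tumor cells with PTEN knocked out; cells exposed to compound for 60 hours before readout; potency for loss of cell viability measured by luminescence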
[15] = growth suppression of beta-catenin-knockout colon cells, dose response, cell-based, HCT116, human colon tumor (AID 1045); type: functional;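 further: HCT116 colon tumor cells with beta catenin knocked out; cells exposed to compound for 60 hours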
[16] = NIH-3T3 fibroblast cytotoxicity, dose response, cytotoxicity control, cell-based, fluorescence, Alamar Blue, secondary assay (AID 2327); type: functional;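 further: NIH-3T3 mouse fibroblasts cultured with fluconazole at 8 µg/mL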
[17] = C. albicans growth with fluconazole, confirmation, fluorescence, retest (AID 2467); type: functional, cell-based
[18] = Luminescence Cell-Based Dose Retest to Confirm Inhibitors of Cancer Stem Cells. [Related pubchem assays (depositor defined):AID2717, AID2721]; type: functional; settings: Homo sapiens
[19] = cytotoxicity in HEK-293T cells, dose response, cytotoxicity control for TCR NF-kB inhibitor project, luminescence, T-cell screen hits (AID 489026); type: functional, cell-based;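 further: cells exposed to compound about 14 hours before the viability readout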
[20] = Luminescence Cell-Based Dose Response HTS to Identify Inhibitors of 5'UTR Stem-Loop Driven Prion Protein mRNA Translation in H4 Neuroglioblastoma Cells. [Related pubchem assays: 1827 (Project Summary), 1813 (Primary HTS)]; type: functional
[21] = Shn3 3'UTR reporter inhibitors, dose response, cell-based, Clone20 osteoblasts, firefly luciferase, cherry-picked (AID 624132); type: functional;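 further: firefly luciferase luminescence from reporter carrying the Shn3 3'UTR in osteoblasts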
[22] = HepG2 cell cytotoxicity, dose response, cytotoxicity control for Shn3 inhibitor project, CellTiter-Glo, cherry-picked (AID 624134); type: functional, cell-based
[23] = control 3'UTR Renilla luciferase suppression, dose response, counter-screen for Shn3 inhibitor project, cell-based, Clone20-Shn3RL, cherry-picked (AID 624133); type: functional

Large T antigen, sequence (P03070 whole entry): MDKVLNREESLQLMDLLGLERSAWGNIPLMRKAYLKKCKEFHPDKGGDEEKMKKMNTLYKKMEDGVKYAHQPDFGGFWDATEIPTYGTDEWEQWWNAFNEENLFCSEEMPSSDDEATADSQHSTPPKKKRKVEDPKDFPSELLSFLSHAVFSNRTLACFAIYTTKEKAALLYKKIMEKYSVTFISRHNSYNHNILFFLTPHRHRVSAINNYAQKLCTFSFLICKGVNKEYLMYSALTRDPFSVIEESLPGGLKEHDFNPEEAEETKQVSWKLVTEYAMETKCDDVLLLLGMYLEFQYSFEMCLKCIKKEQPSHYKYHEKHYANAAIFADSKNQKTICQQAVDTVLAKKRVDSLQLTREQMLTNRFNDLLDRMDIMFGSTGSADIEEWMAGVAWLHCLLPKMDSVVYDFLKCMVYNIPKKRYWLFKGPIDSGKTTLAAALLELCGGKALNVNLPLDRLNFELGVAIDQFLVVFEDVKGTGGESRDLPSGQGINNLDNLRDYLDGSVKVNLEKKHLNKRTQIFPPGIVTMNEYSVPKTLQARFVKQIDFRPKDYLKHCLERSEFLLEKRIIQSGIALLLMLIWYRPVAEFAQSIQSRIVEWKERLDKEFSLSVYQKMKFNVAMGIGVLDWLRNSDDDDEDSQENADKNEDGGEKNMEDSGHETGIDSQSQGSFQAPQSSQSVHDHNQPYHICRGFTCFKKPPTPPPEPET
T2 sequence (P11940 whole entry): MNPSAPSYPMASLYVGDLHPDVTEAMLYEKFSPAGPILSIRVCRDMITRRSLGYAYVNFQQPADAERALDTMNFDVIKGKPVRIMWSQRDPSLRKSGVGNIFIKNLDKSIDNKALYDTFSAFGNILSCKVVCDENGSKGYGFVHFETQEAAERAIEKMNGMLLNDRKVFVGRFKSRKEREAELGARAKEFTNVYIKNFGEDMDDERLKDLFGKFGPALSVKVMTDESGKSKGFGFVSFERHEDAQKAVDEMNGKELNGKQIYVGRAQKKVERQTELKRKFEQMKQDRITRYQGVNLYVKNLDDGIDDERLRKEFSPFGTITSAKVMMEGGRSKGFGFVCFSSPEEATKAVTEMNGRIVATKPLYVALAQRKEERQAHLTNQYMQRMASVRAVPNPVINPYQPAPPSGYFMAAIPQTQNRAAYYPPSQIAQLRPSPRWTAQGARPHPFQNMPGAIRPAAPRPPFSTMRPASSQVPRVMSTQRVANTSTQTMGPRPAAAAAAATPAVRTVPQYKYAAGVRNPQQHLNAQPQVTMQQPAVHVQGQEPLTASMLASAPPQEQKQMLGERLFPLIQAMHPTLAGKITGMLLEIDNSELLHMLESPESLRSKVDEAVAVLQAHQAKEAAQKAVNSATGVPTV
Luciferin 4-monooxygenase, sequence (P08659 whole entry): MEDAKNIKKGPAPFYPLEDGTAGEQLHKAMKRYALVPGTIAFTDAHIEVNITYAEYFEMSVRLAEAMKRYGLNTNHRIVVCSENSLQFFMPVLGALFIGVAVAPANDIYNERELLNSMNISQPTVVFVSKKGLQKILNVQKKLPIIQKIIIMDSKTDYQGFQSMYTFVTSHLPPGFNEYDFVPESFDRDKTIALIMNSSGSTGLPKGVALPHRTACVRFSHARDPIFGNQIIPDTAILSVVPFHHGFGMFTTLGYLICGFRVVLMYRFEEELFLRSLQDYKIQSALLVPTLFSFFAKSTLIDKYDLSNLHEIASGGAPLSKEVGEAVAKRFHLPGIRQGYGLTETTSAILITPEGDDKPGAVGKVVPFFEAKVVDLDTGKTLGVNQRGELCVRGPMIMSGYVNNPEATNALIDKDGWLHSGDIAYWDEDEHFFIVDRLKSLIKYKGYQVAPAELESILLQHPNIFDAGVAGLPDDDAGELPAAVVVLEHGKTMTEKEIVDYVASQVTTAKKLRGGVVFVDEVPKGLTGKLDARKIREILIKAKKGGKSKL
Cytochrome P450 2C9, sequence (P11712 whole entry): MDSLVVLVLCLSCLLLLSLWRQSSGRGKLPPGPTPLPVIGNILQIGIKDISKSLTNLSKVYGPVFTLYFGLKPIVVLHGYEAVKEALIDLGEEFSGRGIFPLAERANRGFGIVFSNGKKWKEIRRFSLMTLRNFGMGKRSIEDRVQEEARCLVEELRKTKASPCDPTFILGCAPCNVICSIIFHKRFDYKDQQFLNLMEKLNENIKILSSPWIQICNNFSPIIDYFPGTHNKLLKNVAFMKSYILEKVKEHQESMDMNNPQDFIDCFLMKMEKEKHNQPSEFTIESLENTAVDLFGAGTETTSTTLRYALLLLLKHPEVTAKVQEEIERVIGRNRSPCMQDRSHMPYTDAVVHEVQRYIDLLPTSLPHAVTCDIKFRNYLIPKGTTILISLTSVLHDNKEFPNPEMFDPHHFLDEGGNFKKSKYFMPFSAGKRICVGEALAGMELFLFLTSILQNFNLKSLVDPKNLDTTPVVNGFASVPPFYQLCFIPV

In the case of `CCN(CC)CCOC(=O)Cc1cccc2c(=O)cc(-c3ccccc3)oc12`, the GI50 [1] is reported as 122 µM (inactive), the GI50 [2] is reported as 24.7 µM (inactive) and the GI50 [3] is reported as 206 µM (inactive).
For `CCOc1ccc(NC(=O)C2CC=CCC2C(=O)O)cc1` (configuration not stated), the IC50 [4] was 10.5 µM (active).
With `COc1cc(C2c3cc4c(cc3[C@@H](Nc3cccc([N+](=O)[O-])c3)C3COC(=O)[C@H]23)OCO4)cc(OC)c1O` (some centres not stated) the GI50 [1] was 0.783 µM (active), the GI50 [2] was 0.589 µM (active) and the GI50 [3] was < 0.0193 µM (active).
In the case of `CC1CC(C)CC(C)C(O)/C(C#N)=C/C=C/CC(C2CCCC2C(=O)O)OC(=O)CC(O)C(C)C1` (configuration not stated), the GI50 [1] is reported as < 0.01 µM (active), the GI50 [2] is reported as < 0.0109 µM (active) and the GI50 [3] is reported as < 0.01 µM (active).
In the case of `O=[N+]([O-])c1ccc(S(=O)(=O)Nc2ccc3c(c2)OCCO3)cc1`, the IC50 [5] is reported as > 66 µM (inactive) and the IC50 [6] is reported as > 66 µM (inactive).
For `COc1cc(/C=C/C(=O)Nc2nnc(CC(C)(C)C)s2)cc(OC)c1OC`, the IC50 [5] was > 66 µM (inactive) and the IC50 [6] was > 66 µM (inactive).
In the case of `COc1cc(/C=N/N(C)c2ccccc2)ccc1O`, the IC50 [7] is reported as 8.47 µM (active) and the IC50 [8] is reported as 15.6 µM (active).
For `Cc1oc(C(C)(C)C)cc1C(=O)NC(Cc1ccccc1)C(=O)O` (configuration not stated), the IC50 [4] was 12.7 µM (active).
With `N#Cc1c(-c2ccco2)c2c([nH]c1=S)CCCC2` the IC50 [7] was 37.7 µM (active).
In the case of `Cc1ccccc1OCCCCn1cnc2ccccc21`, the AC50 [9] is reported as 6.87 µM (active) and the AC50 [10] is reported as 4.16 µM (active).
For `CCNC(=O)c1c(NC(C)=O)sc2c1CCCC2`, the EC50 [11] was > 112 µM (not active), the EC50 [12] was 15.2 µM (active) and the AC50 [13] was 17.8 µM (inconclusive).
In the case of `CC1CC=CC(O)C1` (configuration not stated), the GI50 [1] is reported as > 100 µM (inactive), the GI50 [2] is reported as > 100 µM (inactive) and the GI50 [3] is reported as 55 µM (inactive).
For `Cc1ccc(S(=O)(=O)CCC(=O)OCC(=O)NCC(=O)Nc2cccc(C)c2C)cc1`, the EC50 [11] was > 112 µM (not active) and the EC50 [12] was > 112 µM (not active).
For `COCC1N=C(c2cc(OC)c(OC)c(OC)c2-c2cc3c(cc2[C@@H](C)O)OCO3)O[C@H]1c1ccccc1` (some centres not stated), the GI50 [1] was > 100 µM (inactive), the GI50 [2] was 55.5 µM (inactive) and the GI50 [3] was 64.3 µM (inactive).
In the case of `COc1cc(/C=N\NC(=O)c2ccc(Cn3nc([N+](=O)[O-])c(Cl)c3C)o2)ccc1O`, the IC50 [7] is reported as 32.7 µM (active) and the IC50 [8] is reported as 30.5 µM (active).
For `Cc1cc(C)c(NC(=O)CN2C(=O)NC3(CCCCC3)C2=O)c(C)c1`, the IC50 [4] was 19.5 µM (active).
For `Cc1cnc([N+](=O)[O-])n1CCOC(=O)NC(=O)c1cccc(F)c1`, the EC50 [11] was > 112 µM (not active) and the EC50 [12] was 18.4 µM (active).
In the case of `Cc1ccccc1-c1nc(S(=O)(=O)c2ccccc2)c(N2CCCC2)o1`, the IC50 [5] is reported as > 66 µM (inactive) and the IC50 [6] is reported as > 66 µM (inactive).
With `CCN(C(=O)CN1C(=O)NC(c2ccccc2)(c2ccccc2)C1=O)c1ccccc1` the EC50 [11] was > 112 µM (not active) and the EC50 [12] was > 112 µM (not active).
With `Cc1cc(C)c(C2=NO[C@@H]3[C@H]2C(=O)C=C2N(Cc4ccccc4)CCO[C@@]23O)c(C)c1` the GI50 [1] was > 100 µM (inactive), the GI50 [2] was > 100 µM (inactive) and the GI50 [3] was > 100 µM (inactive).
With `O=C(O)C12CC3CC(C1)CC(n1ncc(NCc4ccccc4)c(Cl)c1=O)(C3)C2` the IC50 [4] was 90 µM (active).
In the case of `CCN1C(=O)C(=Cc2ccc(C)s2)C(=O)N(CC)C1=S`, the EC50 [14] is reported as 9.84 µM (active) and the EC50 [15] is reported as 31.9 µM (active).
For `Cc1ccccc1C(=O)Nc1nnc(-c2ccc(F)cc2)o1`, the EC50 [16] was > 150 µM (inactive), the EC50 [17] was 1.25 µM (active) and the EC50 [14] was 18.4 µM (active). For the same molecule, the EC50 [15] was 16.6 µM (active).
In the case of `O=C(NC(=S)Nc1cccc(Cl)c1N1CCOCC1)c1cccs1`, the IC50 [5] is reported as > 66 µM (inactive) and the IC50 [6] is reported as > 66 µM (inactive).
With `COc1ccccc1NC(=O)NC1(C(=O)N2CCCCCC2)CCCCC1` the EC50 [11] was > 112 µM (not active) and the EC50 [12] was > 112 µM (not active).
With `Cc1cc2ncn(-c3ncccc3[N+](=O)[O-])c2cc1C` the IC50 [5] was > 66 µM (inactive) and the IC50 [6] was > 66 µM (inactive).
For `C[C@@H](CN1CC(=O)NC(=O)C1)N1CC(=O)NC(=O)C1` [DEXRAZOXANE], the GI50 [1] was 394 µM (inactive), the GI50 [2] was 24.2 µM (inactive) and the GI50 [3] was 49.3 µM (inactive).
With `COc1cc2c(cc1OC)-c1cc(Nc3ccccc3)nc(=O)n1CC2` the EC50 [11] was > 112 µM (not active) and the EC50 [12] was 1.63 µM (active).
In the case of `O=C(Nc1ncc(Cc2ccc(SC(F)F)cc2)s1)c1ccc(OC(F)F)cc1`, the AC50 [18] is reported as < 160 nM (active) and the IC50 [19] is reported as > 80 µM (inactive).
In the case of `N#C/C(=C\c1ccccc1OCc1ccc(C(=O)O)cc1)C(=O)Nc1ccc(O)cc1`, the IC50 [7] is reported as 11.5 µM (active).
With `COc1ccc(NC(=O)NCCCN2CCN(c3cc(C)ccc3C)CC2)cc1` the EC50 [14] was 10.2 µM (active) and the EC50 [15] was 7.42 µM (active).
With `CCOc1ccc(NC(=O)CSc2nnc(CCNC(=O)c3ccc(OC)cc3)n2CC)cc1` the IC50 [4] was 8.71 µM (active).
For `CN(C)CCNC(=O)c1ccc(Cl)c2ccc(-c3ccccc3)nc12`, the GI50 [1] was 1.95 µM (inactive), the GI50 [2] was 2.28 µM (inactive) and the GI50 [3] was 1.13 µM (inactive).
In the case of `COc1ccc(NC(=O)C2CCCN(c3nn4c(=O)cc(C)nc4s3)C2)cc1` (configuration not stated), the EC50 [11] is reported as > 112 µM (not active) and the EC50 [12] is reported as > 112 µM (not active).
For `Nc1nc(F)nc2c1ncn2C1OC(COP(=O)(O)O)C(O)C1O` (configuration not stated), the GI50 [1] was 4.22 µM (inactive), the GI50 [2] was 18.1 µM (inactive) and the GI50 [3] was 3.24 µM (inactive).
With `N#CC(c1ccc(Cl)cc1)c1ccc2c(C(F)(F)F)cc(C(F)(F)F)nc2n1` (configuration not stated) the EC50 [20] was 8.03 µM (active), the EC50 [14] was 0.349 µM (active) and the EC50 [15] was 0.321 µM (active). The AC50 [9] was 0.54 µM (active), the AC50 [21] was 487 nM (active) and the AC50 [22] was 2.97 µM (active). For the same molecule, the AC50 [23] was 1.38 µM (active).

Reference: ChEMBL document CHEMBL1201862, “PubChem BioAssay data set” (2004)
